{"source": "patent US10426757B2", "about": "“Compositions and methods for promoting intestinal stem cell and/or non-stem progenitor cell function” (Whitehead Institute for Biomedical Research, priority 2014, dated 2019)", "tested_on": "control diet-derived organoids", "assay": "Ex vivo exposure of crypts and organoids to palmitic acid", "type": "cell-based, mouse", "protocol": "To examine whether PA, like a HFD, augmented the numbers of ISCs per primary organoid, we assayed the self-renewal capacity of the primary organoids in secondary cultures and assessed how PA-treatment influenced the frequency of ISCs.\nIsolated crypts were counted and embedded in Matrigel™ (Corning 356231 growth factor reduced) at 5-10 crypts per μl and cultured in a modified form of medium as described previously.^14 Briefly, Advanced DMEM (Gibco) was supplemented by EGF 40 ng ml^−1 (R&D), Noggin 200 ng ml^−1 (Peprotech), R-spondin […](R&D or Sino Biological), N-acetyl-L-cysteine 1 μM (Sigma-Aldrich), N2 1X (Life Technologies), B27 1X (Life Technologies), Chiron 10 μM (Stemgent), Y-27632 dihydrochloride monohydrate 20 ng ml^−1 (Sigma-Aldrich). 25 μL drops of Matrigel™ with crypts were plated onto a flat bottom 48-well plate (Corning 3548) and allowed to solidify for 20-30 minutes in a 37° C. incubator. Three hundred microliters of crypt culture medium was then overlaid onto the Matrigel™, changed every three days, and maintained at 37° C. in fully humidified chambers containing 5% CO2. Clonogenicity (colony-forming efficiency) was calculated by plating 50-300 crypts and assessing organoid formation 3-7 days or as specified after initiation of cultures.\nIsolated ISCs or progenitor cells were centrifuged for 5 minutes at 250 g, re-suspended in the appropriate volume of crypt culture medium (500-1,000 cells μl^−1), then seeded onto 25-30 μl Matrigel™ (Corning 356231 growth factor reduced) containing 1 μM jagged (Ana-Spec) in a flat bottom 48-well plate (Corning 3548). Alternatively, ISCs and Paneth cells were mixed after sorting in a 1:1 ratio, centrifuged, and then seeded onto Matrigel™. The Matrigel™ and cells were allowed to solidify before adding 300 μl of crypt culture medium. The crypt media was changed every second or third day. Organoid bodies were quantified on days 3, 7 and 10 of culture, unless otherwise specified. With respect to the study results presented in FIGS. 14-16, organoid bodies were quantified on day 3-4. […]", "note": "“Also recorded” adds a separate entry of the source.", "data": [{"smiles": "CCCCCCCCCCCCCCCC(=O)O", "note": "[PA, palmitic acid]", "values": [{"measurement": "primary organoid formation (clonogenic potential of crypts)", "setting": "30 μM PA", "value": "did not change; also recorded: no effect"}, {"measurement": "secondary organoid-forming activity", "setting": "30 μM PA, four weeks", "value": "more than twofold increase; also recorded: more secondary organoid-forming activity"}, {"measurement": "frequency of Lgr5-GFP^hi ISCs in organoids", "setting": "four-week PA treatment", "value": "twofold increase; also recorded: increased the frequency"}]}]}
